These results are taken from patent US11530197B2, “Analogs for the treatment of disease” (Insilico Medicine IP Limited, priority 2021, dated 2022).

Data set [1] relates to Collagen I (COL1A1) in LX-2 cells. The data set can be described thus: Collagen and Alpha-SMA in LX-2 (Western blot after TGF-β stimulation).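 Note: cells serum-starved in 0.4% FBS before treatment, lysates analysed by Western blot, DMSO-only wells as blank and TGF-β alone as maximal induction control, three independent experiments.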 To be noted: Homo sapiens, 4 ng/ml TGF-β for 48 hours, Collagen I normalized to GAPDH. The data set is classed as cell-based. Background: A western blot detects proteins with antibodies after separation by electrophoresis.
Method: 3 ml of 0.25% Trypsin-EDTA solution was then added and cells were incubated at 37° C. for 5 min for each T150-flask. 7 ml of culture medium was added to stop trypsinization. The cells were centrifuged at 300×g for 5 min. Supernatant medium was discarded and cells were re-suspended with fresh culture medium. The cells were counted with Cell viability analyzer. 5.0E+05 cells/well were seeded into 6-well plate containing 2.0 mL of culture medium. The cells were cultured overnight at 37° C. The next day, the complete medium was replaced with medium with 0.4% FBS for starvation. […] In parallel, medium containing only DMSO and TGF-β was used as blank control and positive control, respectively. TGF-β induction was used as maximum induction positive control. The culture medium was discarded at the end of induction. Cells were washed once using ice-cold DPBS. RIPA buffer was added to lyse the cells for 20 min. The cells were then scraped off the culture plate, collected in a tube and centrifuged. The supernatant was stored at −80° C. The total amount of protein in the lysate was determined using BCA Protein Assay kit. The cell treatment of fibrosis assay was performed in three independent experiments for each compound.
All the lysate samples were adjusted to the same protein concentration with RIPA buffer after BCA assay. […] The denatured samples were used for electrophoresis. Western blot was performed according to the standard protocols. The same volume of protein was loaded onto 4-12% Bis-Tris gel. Duplicate lysates of samples were loaded onto two gels. The gels were run for 0.5 h at 80 V and 120 V for another 1 h. When the electrophoresis was completed, the gels containing target protein Collagen I (COL1A1) were transferred onto NC membrane using Trans-Blot Electrophoretic Transfer Cell for 90 min at 100 V. The iBlot™ 2 Gel Transfer Device was used to transfer α-SMA and GAPDH at 20 V for 7 min. All the membranes were blocked in TBST buffer with 5% nonfat dry milk in at RT for 1 h and then incubated with primary antibody anti-COL1A1 and anti-α-SMA in TBST buffer containing 5% BSA at 4° C. overnight. For GAPDH detection, the membrane with α-SMA immunoblots were stripped with Restore™ Western Blot Stripping Buffer after detection. And the membranes were re-blocked and then re-probed with primary antibody anti-GAPDH antibody at room temperature (RT) for 2 h. After incubation with primary antibodies, membranes were washed with TBST, then incubated with the secondary antibody at RT for 1 h. Blots were visualized using the instrument Image Quant LAS-4000. The chemiluminescent signals derived from ECL Western blotting reagents were captured. The bands integrated intensity from 16-bit blot images was used for quantitation with the software (1D component of ImageQuant TL). The quantification raw data of the two duplicated gels was obtained from ImageQuant TL. Collagen I and α-SMA proteins expression level was normalized to GAPDH for each gel. The average normalization data of the two duplicated gels was calculated and applied to calculate IC50 using an equation for a sigmoidal dose response (variable slope) of GraphPad™ Prism software. The equation is Y=Bottom+(Top-Bottom)/(1+10^((Log IC50−X)*Hillslope). Note: X is the logarithm of compound concentration, Y is the average normalization data
A short description of data set [2]: Metabolic stability in human liver microsomes.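 Note: NADPH-supplemented human liver microsomes sampled at 0, 5, 10, 20, 30 and 60 min, parent compound quantified by LC-MS/MS, intrinsic clearance from first-order decay, no-cofactor incubation as control.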 To be noted: LM Clint; 1 μM test compound, 0.5 mg protein/mL microsome, 37° C., up to 60 min. The data set is classed as in vitro ADME.
Method: Test Compound an Control Working Solution Preparation: Working solution: 5 μL of compound and control stock solution (10 mM in dimethyl sulfoxide (DMSO)) were diluted with 495 µL of acetonitrile (ACN) (intermediate solution concentration: 100 μM, 99% ACN).
Preparation Procedure: The appropriate amount of NADPH powder was weighed and diluted into a 10 mM MgCl2 solution (working solution concentration: 10 unit/mL; final concentration in reaction system: 1 unit/mL).
Preparation Procedure: The appropriate concentrations of microsome working solutions were prepared in 100 mM potassium phosphate buffer.
Stop Solution Preparation: Cold (4° C.) acetonitrile (ACN) containing 200 ng/mL tolbutamide and 200 ng/mL labetalol as internal standards (IS) was used as the stop solution.
Dilute liver microsomes to 0.56 mg/mL in 100 mM phosphate buffer.
Transfer 445 μL microsome working solutions (0.56 mg/mL) into pre-warmed ‘Incubation’ plates T60 and NCF60, Then pre-incubate ‘Incubation’ plates T60 and NCF60 for 10 min at 37° C. with constant shaking. Transfer 54 μL liver microsomes to blank plate, then add 6 μL NAPDH cofactor to blank plate, and then add 180 μL quenching solution to blank plate.
2.5.4 Add 5 μL compound working solution (100 μM) into ‘incubation’ plates (T60 and NCF60) containing microsomes and mix 3 times thoroughly.
For the NCF60 plate, add 50 μL of buffer and mix 3 times thoroughly. Start timing; plate will be incubated at 37° C. for 60 min while shaking.
For the T60 plate, mix 3 times thoroughly, and immediately remove 54 μL mixture for the 0-min time point to ‘Quenching’ plate. Then add 44 μL NAPDH cofactor to incubation plate (T60). Start timing; plate will be incubated at 37° C. for 60 min while shaking.
At 5, 10, 20, 30, and 60 min, add 180 μL quenching solution to ‘Quenching’ plates, mix once, and serially transfer 60 μL sample from T60 plate per time point to ‘Quenching’ plates.
For NCF60: mix once, and transfer 60 μL sample from the NCF60 incubation to ‘Quenching’ plate containing quenching solution at the 60-min time point.
All sampling plates are shaken for 10 min, then centrifuged at 4000 rpm for 20 minutes at 4° C.
Transfer 80 μL supernatant into 240 μL HPLC water, and mix by plate shaker for 10 min.
Each bioanalysis plate was sealed and shaken for 10 minutes prior to LC-MS/MS analysis.
The equation of first order kinetics was used to calculate T½ and Intrinsic clearance (CLint mic) in (L/min/mg).
For the next data set, the target named is TNIK(h) (Homo sapiens (Human), UniProt Q9UKE5). The data set can be described thus: TNIK Human STE Kinase Enzymatic Radiometric Assay.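 Note: remaining kinase activity relative to DMSO control, compound added without preincubation, reaction started with ATP, IC50 from variable-slope sigmoidal dose-response fit.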 The following applies: ATP 70 μM; 40 min at room temperature; read-out: TNIK (IC50). The format is biochemical.
The next data set deals with MAP4K4 (h) (Homo sapiens (Human), UniProt O95819). The data set can be described thus: MAP4K4 Human STE Kinase Enzymatic Radiometric Assay.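 Note: kinase activity remaining relative to the DMSO control, IC50 derived from sigmoidal variable-slope curve fits, no preincubation of compound with enzyme before ATP start.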 The following applies: ATP 200 μM; 40 min at room temperature. The format is biochemical.
MAP4K4 (h), sequence (O95819 whole entry): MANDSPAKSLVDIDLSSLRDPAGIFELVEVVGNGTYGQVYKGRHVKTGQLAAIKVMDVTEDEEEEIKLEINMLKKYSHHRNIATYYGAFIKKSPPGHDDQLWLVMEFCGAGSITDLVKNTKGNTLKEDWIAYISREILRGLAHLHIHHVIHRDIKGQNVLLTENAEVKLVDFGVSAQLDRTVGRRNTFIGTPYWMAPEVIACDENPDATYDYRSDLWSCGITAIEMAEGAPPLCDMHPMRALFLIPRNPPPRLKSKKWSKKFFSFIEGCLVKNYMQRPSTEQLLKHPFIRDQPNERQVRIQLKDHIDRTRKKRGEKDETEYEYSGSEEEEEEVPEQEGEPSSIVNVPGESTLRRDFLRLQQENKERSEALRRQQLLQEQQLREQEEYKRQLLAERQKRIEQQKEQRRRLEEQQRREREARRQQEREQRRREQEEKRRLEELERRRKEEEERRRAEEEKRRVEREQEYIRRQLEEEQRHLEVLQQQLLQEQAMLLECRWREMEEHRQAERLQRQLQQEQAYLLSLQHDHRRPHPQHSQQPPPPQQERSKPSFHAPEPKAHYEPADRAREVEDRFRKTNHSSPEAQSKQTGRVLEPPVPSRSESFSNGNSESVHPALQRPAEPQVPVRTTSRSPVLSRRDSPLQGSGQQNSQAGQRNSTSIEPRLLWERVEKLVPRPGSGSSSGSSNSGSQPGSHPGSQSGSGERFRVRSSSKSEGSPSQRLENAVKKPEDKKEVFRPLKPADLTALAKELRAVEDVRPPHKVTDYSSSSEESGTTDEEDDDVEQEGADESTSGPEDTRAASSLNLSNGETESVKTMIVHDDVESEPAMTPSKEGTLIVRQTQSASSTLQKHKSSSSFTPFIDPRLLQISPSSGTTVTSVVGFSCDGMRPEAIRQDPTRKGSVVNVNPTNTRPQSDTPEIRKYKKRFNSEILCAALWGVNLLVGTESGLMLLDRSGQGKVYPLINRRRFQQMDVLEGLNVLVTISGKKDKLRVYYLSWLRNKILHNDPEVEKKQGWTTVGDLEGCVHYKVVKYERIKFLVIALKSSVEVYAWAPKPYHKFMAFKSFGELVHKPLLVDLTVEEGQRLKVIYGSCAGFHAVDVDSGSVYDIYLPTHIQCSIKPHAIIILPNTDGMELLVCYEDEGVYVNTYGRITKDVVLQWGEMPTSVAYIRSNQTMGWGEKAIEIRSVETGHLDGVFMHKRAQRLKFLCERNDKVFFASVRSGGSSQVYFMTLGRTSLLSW

TNIK(h), sequence (Q9UKE5 whole entry): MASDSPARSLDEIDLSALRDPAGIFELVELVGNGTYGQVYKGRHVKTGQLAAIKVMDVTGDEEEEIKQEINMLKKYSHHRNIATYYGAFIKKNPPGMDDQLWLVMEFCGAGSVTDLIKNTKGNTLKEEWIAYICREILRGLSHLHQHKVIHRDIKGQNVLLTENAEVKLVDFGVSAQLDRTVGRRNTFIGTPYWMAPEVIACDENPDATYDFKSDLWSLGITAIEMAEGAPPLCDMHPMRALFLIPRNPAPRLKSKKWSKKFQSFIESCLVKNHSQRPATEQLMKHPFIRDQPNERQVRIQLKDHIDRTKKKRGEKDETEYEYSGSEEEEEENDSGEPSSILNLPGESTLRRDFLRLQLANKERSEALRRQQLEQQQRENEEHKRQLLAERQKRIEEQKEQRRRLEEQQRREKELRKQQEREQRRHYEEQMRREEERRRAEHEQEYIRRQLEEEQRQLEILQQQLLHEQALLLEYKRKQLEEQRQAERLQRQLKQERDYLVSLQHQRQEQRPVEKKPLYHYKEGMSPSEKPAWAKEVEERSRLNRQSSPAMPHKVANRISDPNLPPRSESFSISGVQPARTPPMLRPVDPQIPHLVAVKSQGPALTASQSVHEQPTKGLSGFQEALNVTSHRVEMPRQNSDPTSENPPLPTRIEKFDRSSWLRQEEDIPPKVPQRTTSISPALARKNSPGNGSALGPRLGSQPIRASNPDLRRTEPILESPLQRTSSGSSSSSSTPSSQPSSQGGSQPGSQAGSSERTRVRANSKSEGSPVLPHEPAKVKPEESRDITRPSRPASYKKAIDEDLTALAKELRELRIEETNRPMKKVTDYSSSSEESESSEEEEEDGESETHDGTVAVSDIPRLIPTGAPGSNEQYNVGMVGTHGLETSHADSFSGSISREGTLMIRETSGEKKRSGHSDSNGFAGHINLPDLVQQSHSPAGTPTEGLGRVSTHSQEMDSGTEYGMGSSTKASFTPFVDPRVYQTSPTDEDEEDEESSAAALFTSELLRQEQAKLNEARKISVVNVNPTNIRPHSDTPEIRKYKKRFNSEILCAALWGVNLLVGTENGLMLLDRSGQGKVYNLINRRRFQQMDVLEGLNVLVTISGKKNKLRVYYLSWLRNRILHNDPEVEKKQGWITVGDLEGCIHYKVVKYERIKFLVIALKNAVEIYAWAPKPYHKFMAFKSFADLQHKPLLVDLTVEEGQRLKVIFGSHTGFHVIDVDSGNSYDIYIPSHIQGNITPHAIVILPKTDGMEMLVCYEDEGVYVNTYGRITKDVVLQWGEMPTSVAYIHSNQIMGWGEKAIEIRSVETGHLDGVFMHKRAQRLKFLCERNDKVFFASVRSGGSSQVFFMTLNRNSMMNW
Method for MAP4K4 (h): (§1) The reaction is initiated by the addition of the Mg/ATP mix. After incubation for 40 minutes at room temperature, the reaction is stopped by the addition of phosphoric acid to a concentration of 0.5%.
INCUBATION: 40 min at Room temperature
COMPOUND DILUTION SCHEME: All compounds supplied were prepared to a working stock of 50× final assay concentration in 100% DMSO. Where appropriate, more concentrated stocks were diluted manually to 50× using 100% DMSO. Compounds supplied as powders were reconstituted to a 10 mM stock in 100% DMSO before further dilution to 50×.
ASSAY PROCEDURE: The required volume of the 50× stock of test compound was added to the assay before a reaction mix containing the enzyme and substrate was added. The reaction was initiated by the addition of ATP at the selected concentration. There was no pre-incubation of the compound with the enzyme/substrate mix prior to ATP addition.
Results are expressed as kinase activity remaining, as a percentage of the DMSO control. This is calculated using the following formula: Mean of Sample Counts−Mean of Blank Counts/Mean of Control Counts
(§2) For IC50 determinations, data are analyzed using XLFit version 5.3 (ID Business Solutions). Sigmoidal dose-response (variable slope) curves are fit based on the mean result for each test concentration using non-linear regression analysis. Where the top and/or bottom of the curve fall >10% out with 100 and 0, respectively, either or both of these limits may be constrained at 100 and 0, provided that the QC criterion on R2 is met.
Method for TNIK(h): as §1
INCUBATION: 40 min at Room temperature
COMPOUND DILUTION SCHEME: All compounds supplied were prepared to a working stock of 50× final assay concentration in 100% DMSO. Where appropriate, more concentrated stocks were diluted manually to 50× using 100% DMSO. Compounds supplied as powders were reconstituted to a 10 mM stock in 100% DMSO before further dilution to 50×. ASSAY PROCEDURE: The required volume of the 50× stock of test compound was added to the assay before a reaction mix containing the enzyme and substrate was added. The reaction was initiated by the addition of ATP at the selected concentration. There was no pre-incubation of the compound with the enzyme/substrate mix prior to ATP addition. […] Results are expressed as kinase activity remaining, as a percentage of the DMSO control. This is calculated using the following formula:
as §2

The term IC50 denotes the concentration at which inhibition is half-maximal. On to `O=C(Nc1ccccc1F)c1occc1-c1c(-c2cccnc2)ncn1C1CCCC1` [Compound 1], for which the IC50 in data set [1] was more than 1 nM.
Still for that read-out and setting: in the case of `O=C(Nc1ccccc1F)c1occc1-c1c(-c2ccc(F)cc2)ncn1CC1CCOC1` (stereo not shown) [Compound 4] it was more than 1 nM.
Same read-out and setting: as for `O=C(NC1CCOCC1)c1ccc(-c2c(-c3ccc(F)cc3)ncn2C2CCCC2)o1` [Compound 39], the figure is more than 1 nM.
With `CC(C)n1cnc(-c2ccc(F)cc2)c1-c1nc(C(=O)Nc2ccc(N3CCN(S(N)(=O)=O)CC3)cc2)c[nH]1` [Compound 97, 5′-(4-fluorophenyl)-3′-isopropyl-N-(4-(4-sulfamoylpiperazin-1-yl)phenyl)-1H,3′H-[2,4′-biimidazole]-4-carboxamide], in data set [2], the “Human Liver Microsome (μM/min/mg)” value is given as “+ (>100 μM/min/mg as +)”. Further, the IC50 on TNIK(h) and on MAP4K4 (h) was 12 to 120 nM throughout.
For the molecule `CC(C)n1cnc(-c2ccc(F)cc2)c1-c1nc(C(=O)Nc2ccc(N3CCN(C(N)=O)CC3)cc2)c[nH]1` [Compound 99, N-(4-(4-carbamoylpiperazin-1-yl)phenyl)-5′-(4-fluorophenyl)-3′-isopropyl-1H,3′H-[2,4′-biimidazole]-4-carboxamide], the “Human Liver Microsome (μM/min/mg)” value in data set [2] was “++ (10-100 μM/min/mg as ++)”. In addition, the half-inhibitory concentration (IC50) on TNIK(h) and against MAP4K4 (h) was more than 120 nM throughout.
In the case of `CC(C)n1cnc(-c2ccc(F)cc2)c1-c1nc(C(=O)Nc2ccc(CCC(=O)O)cc2)c[nH]1` [Compound 102, 3-(4-(5′-(4-fluorophenyl)-3′-isopropyl-1H,3′H-[2,4′-biimidazole]-4-carboxamido)phenyl)propanoic acid], the “Human Liver Microsome (μM/min/mg)” value in data set [2] was “+++ (1-10 μM/min/mg as +++)”. Further, the figures for the half-maximal inhibitory concentration (IC50) on TNIK(h) and against MAP4K4 (h) were 12 to 120 nM and more than 120 nM, respectively.
In the same order, the values of `CC(C)n1cnc(-c2ccc(F)cc2)c1-c1nc(C(=O)Nc2ccc(C(=O)O)cc2)c[nH]1` [Compound 113, 4-(5′-(4-fluorophenyl)-3′-isopropyl-1H,3′H-[2,4′-biimidazole]-4-carboxamido)benzoic acid] are “+++ (1-10 μM/min/mg as +++)”, 1 to 12 nM and more than 120 nM.
For the molecule `CN1CCN(c2ccc(NC(=O)c3c[nH]c(-c4c(-c5ccc(F)cc5)ncn4C)n3)cc2)CC1` [Compound 119, 5′-(4-fluorophenyl)-3′-methyl-N-(4-(4-methylpiperazin-1-yl)phenyl)-1H,3′H-[2,4′-biimidazole]-4-carboxamide], the “Human Liver Microsome (μM/min/mg)” value in data set [2] is given as “++ (10-100 μM/min/mg as ++)”. Moreover, the half-inhibitory concentration (IC50) at TNIK(h) and on MAP4K4 (h) was more than 120 nM throughout.
Consider `CC(C)n1cnc(-c2ccc(F)cc2)c1-c1nc(C(=O)Nc2ccc(CCCCC(=O)O)cc2)c[nH]1` [Compound 132, 5-(4-(5′-(4-fluorophenyl)-3′-isopropyl-1H,3′H-[2,4′-biimidazole]-4-carboxamido)phenyl)pentanoic acid], for which the “Human Liver Microsome (μM/min/mg)” value in data set [2] was “+++ (1-10 μM/min/mg as +++)”. The 50% inhibitory concentration (IC50) on TNIK(h) and against MAP4K4 (h) was 12 to 120 nM in each case.
As for `CC(C)n1cnc(-c2ccc(C(F)(F)F)cc2)c1-c1nc(C(=O)Nc2ccc(CCC(=O)O)cc2)c[nH]1` [Compound 133, 3-(4-(3′-isopropyl-5′-(4-(trifluoromethyl)phenyl)-1H,3′H-[2,4′-biimidazole]-4-carboxamido)phenyl)propanoic acid], in data set [2], the “Human Liver Microsome (μM/min/mg)” value is “+++ (1-10 μM/min/mg as +++)”. For the same molecule, the 50% inhibitory concentration (IC50) on TNIK(h) and against MAP4K4 (h) was more than 120 nM each time.
Take `CC(C)n1cnc(-c2ccc(C(F)(F)F)cc2)c1-c1nc(C(=O)Nc2ccc(N3CCN(CCO)CC3)cc2)c[nH]1` [Compound 134]: the “Human Liver Microsome (μM/min/mg)” value in data set [2] is “++ (10-100 μM/min/mg as ++)”. The IC50 on TNIK(h) and against MAP4K4 (h) was more than 120 nM each time.
For `CN1CCN(c2ccc(NC(=O)c3c[nH]c(-c4c(-c5ccc(F)cc5)ncn4CC(C)(C)C)n3)cc2)CC1` [Compound 135, 5′-(4-fluorophenyl)-N-(4-(4-methylpiperazin-1-yl)phenyl)-3′-neopentyl-1H,3′H-[2,4′-biimidazole]-4-carboxamide], in data set [2], the “Human Liver Microsome (μM/min/mg)” value is listed as “+ (>100 μM/min/mg as +)”. Also, the figures for the IC50 at TNIK(h) and at MAP4K4 (h) were 12 to 120 nM and more than 120 nM, respectively.
In the same order, the values of `CC(C)n1cnc(-c2ccc(Cl)cc2)c1-c1nc(C(=O)Nc2ccc(CCC(=O)O)cc2)c[nH]1` [Compound 137, 3-(4-(5′-(4-chlorophenyl)-3′-isopropyl-1H,3′H-[2,4′-biimidazole]-4-carboxamido)phenyl)propanoic acid] are “+++ (1-10 μM/min/mg as +++)”, 1 to 12 nM and more than 120 nM.
Turning to `CC(C)n1cnc(-c2ccc(C(F)(F)F)cc2)c1-c1nc(C(=O)Nc2ccc(N3CCN(C)CC3)cc2)c[nH]1` [Compound 142, 3′-isopropyl-N-(4-(4-methylpiperazin-1-yl)phenyl)-5′-(4-(trifluoromethyl)phenyl)-1H,3′H-[2,4′-biimidazole]-4-carboxamide], the “Human Liver Microsome (μM/min/mg)” value in data set [2] is “+ (>100 μM/min/mg as +)”. The IC50 at TNIK(h) and against MAP4K4 (h) was more than 120 nM in each case.
With `O=C(Nc1ccc(N2CCN(CCO)CC2)cc1)c1c[nH]c(-c2c(-c3ccc(F)cc3)ncn2[C@H]2CC[C@H](O)CC2)n1` [Compound 158, 5′-(4-fluorophenyl)-3′-((1r,4r)-4-hydroxycyclohexyl)-N-(4-(4-(2-hydroxyethyl)piperazin-1-yl)phenyl)-1H,3′H-[2,4′-biimidazole]-4-carboxamide], the “Human Liver Microsome (μM/min/mg)” value in data set [2] is on record as “+++ (1-10 μM/min/mg as +++)”. Moreover, the concentration for half-maximal inhibition (IC50) at TNIK(h) lay in the range of 1 to 12 nM; at MAP4K4 (h), 12 to 120 nM.
`C[N+]1([O-])CCN(c2ccc(NC(=O)c3c[nH]c(-c4c(-c5ccc(F)cc5)ncn4CC(F)(F)F)n3)cc2)CC1` [Compound 166, 4-(4-(5′-(4-fluorophenyl)-3′-(2,2,2-trifluoroethyl)-1H,3′H-[2,4′-biimidazole]-4-carboxamido)phenyl)-1-methylpiperazine 1-oxide]: the “Human Liver Microsome (μM/min/mg)” value in data set [2] was “+++ (1-10 μM/min/mg as +++)”. For the same molecule, the IC50 on TNIK(h) and against MAP4K4 (h) was more than 120 nM in each case.
As for `CN1CCN(c2ccc(NC(=O)c3c[nH]c(-c4c(-c5ccc(F)cc5)ncn4[C@H]4CC[C@@H](O)CC4)n3)cc2)CC1` [Compound 172], the IC50 on TNIK(h) was in the range of 12 to 120 nM.
With `CN1CCN(c2ccc(NC(=O)c3c[nH]c(-c4ncn(C(F)F)c4-c4ccc(F)cc4)n3)cc2)CC1` [Compound 175], at TNIK(h), the IC50 was in the range of 1 to 12 nM.
With `CC(C)n1cnc(-c2ccc(F)cc2)c1-c1nc(C(=O)Nc2ccc(N3CCNCC3)cc2)c[nH]1` [Compound 181, 5′-(4-fluorophenyl)-3′-isopropyl-N-(4-(piperazin-1-yl)phenyl)-1H,3′H-[2,4′-biimidazole]-4-carboxamide], the “Human Liver Microsome (μM/min/mg)” value in data set [2] was “++ (10-100 μM/min/mg as ++)”. Moreover, the IC50 at TNIK(h) and on MAP4K4 (h) was 12 to 120 nM throughout.
For `CC(C)n1cnc(-c2ccc(F)cc2)c1-c1nc(C(=O)Nc2ccc(N3CCN(C)C(=O)C3)cc2)c[nH]1` [Compound 185, 5′-(4-fluorophenyl)-3′-isopropyl-N-(4-(4-methyl-3-oxopiperazin-1-yl)phenyl)-1H,3′H-[2,4′-biimidazole]-4-carboxamide], the IC50 at TNIK(h) was 12 to 120 nM; on MAP4K4 (h), 12 to 120 nM; in data set [1] it was 0.1 to 1 nM.
As to `CC(C)n1cnc(-c2ccc(F)cc2)c1-c1nc(C(=O)Nc2ccc(N3C[C@H]4CC[C@@H](C3)N4C)cc2)c[nH]1` [Compound 186, 5′-(4-fluorophenyl)-3′-isopropyl-N-(4-((1R,5S)-8-methyl-3,8-diazabicyclo[3.2.1]octan-3-yl)phenyl)-1H,3′H-[2,4′-biimidazole]-4-carboxamide], the 50% inhibitory concentration (IC50) at TNIK(h) and at MAP4K4 (h) was 1 to 12 nM each time.
`CC(=O)N1CCN(c2ccc(NC(=O)c3c[nH]c(-c4c(-c5ccc(F)cc5)ncn4C(C)C)n3)cc2)CC1` [Compound 188, N-(4-(4-acetylpiperazin-1-yl)phenyl)-5′-(4-fluorophenyl)-3′-isopropyl-1H,3′H-[2,4′-biimidazole]-4-carboxamide]: the IC50 on TNIK(h) lay within 1 to 12 nM; on MAP4K4 (h), 12 to 120 nM; in data set [1], 0.1 to 1 nM.
As for `CC(C)n1cnc(-c2ccc(F)cc2)c1-c1nc(C(=O)Nc2ccc(N3CCN(CC(F)(F)F)CC3)cc2)c[nH]1` [Compound 189, 5′-(4-fluorophenyl)-3′-isopropyl-N-(4-(4-(2,2,2-trifluoroethyl)piperazin-1-yl)phenyl)-1H,3′H-[2,4′-biimidazole]-4-carboxamide], the IC50 at TNIK(h) is 12 to 120 nM; on MAP4K4 (h), 12 to 120 nM; in data set [1] it was 0.1 to 1 nM.
Regarding `CC1CN(c2ccc(NC(=O)c3c[nH]c(-c4c(-c5ccc(F)cc5)ncn4CC(F)(F)F)n3)cc2)CC(C)N1C` (stereo not shown) [Compound 190, 5′-(4-fluorophenyl)-3′-(2,2,2-trifluoroethyl)-N-(4-(3,4,5-trimethylpiperazin-1-yl)phenyl)-1H,3′H-[2,4′-biimidazole]-4-carboxamide], the IC50 was 1 to 12 nM on TNIK(h), 12 to 120 nM against MAP4K4 (h) and less than 0.1 nM in data set [1].
For `CC(=O)N1CCN(c2ccc(NC(=O)c3c[nH]c(-c4c(-c5ccc(F)cc5)ncn4CC(F)(F)F)n3)cc2)CC1` [Compound 191, N-(4-(4-acetylpiperazin-1-yl)phenyl)-5′-(4-fluorophenyl)-3′-(2,2,2-trifluoroethyl)-1H,3′H-[2,4′-biimidazole]-4-carboxamide] the same measures were 12 to 120 nM, 12 to 120 nM and 0.1 to 1 nM.
Turning to `O=C(Nc1ccc(N2CCN(CC(F)(F)F)CC2)cc1)c1c[nH]c(-c2c(-c3ccc(F)cc3)ncn2CC(F)(F)F)n1` [Compound 192, 5′-(4-fluorophenyl)-3′-(2,2,2-trifluoroethyl)-N-(4-(4-(2,2,2-trifluoroethyl)piperazin-1-yl)phenyl)-1H,3′H-[2,4′-biimidazole]-4-carboxamide], the IC50 was 12 to 120 nM on TNIK(h), more than 120 nM against MAP4K4 (h) and less than 0.1 nM in data set [1].
